Experimental data as given in PMC12677607, “Identification of a Pair of Linear or Cyclic Naturally Inspired Bifunctional Lipopeptide Antibiotics That Overcome Antimicrobial Resistance” (Advanced Science, 2025).
In brackets after ≈: the same amount, converted by molar mass. Bridge positions count the residues as written; N and C are the ends. Square brackets hold non-standard residues; d marks the D form. Peptide text beside a SMILES is read from it. * marks the point of attachment. Myristoyl = CCCCCCCCCCCCCC(=O)*; Orn = NCCC[C@H](N)C(=O)O; Dab = NCC[C@H](N)C(=O)O; Dap = NC[C@H](N)C(=O)O

Key:
[1] = tested on: Candida albicans ATCC 10231; test: MIC assay (YPD broth); type: cell-based; conditions: Table S11; YPD broth, 30 °C, 16 h, n = 2
Method: (§1) All MIC assays were performed two independent times (n = 2) in 96‐well plates using a broth micro‐dilution method. The lowest concentration of that inhibited visible microbial growth was recorded as the MIC value.
For fungal strains, overnight cultures were diluted 2000‐fold in YPD broth. 100 µL of diluted cells was mixed with 100 µL of YPD broth containing each peptide ranging from […] 64 to 0.125 µg mL^−1 at 2‐fold serial dilutions.

[2] = Isothermal titration calorimetry; type: binding; conditions: Table S12, ITC, 20 mM HEPES pH 7.5, 20 injections
Method: (§2) Calorimetric experiments were performed to evaluate the interaction between CL, PE, PG, or LPS and aquicidine L or aquicidine C4. To determine the affinity between aquicidine L or aquicidine C4 and CL, PE, or PG, both 2 mM CL, PE, or PG and 0.2 mM aquicidine L or aquicidine C4 were dissolved in 20 mM HEPES buffer (pH 7.5). To determine the interaction between LPS and aquicidine L or aquicidine C4, 2 mM LPS and 0.2 mM aquicidine L or aquicidine C4 were dissolved in H2O. Sequential injections of CL, PE, PG, or LPS into the calorimetric cell filled with aquicidine L or aquicidine C4 were repeated 20 times with equilibration intervals of 200 s. Data were collected by using a MicroCal PEAQ‐ITC instrument and calculated for the equilibrium dissociation constant (KD), change of enthalpy (ΔH), and change of entropy […].

[3] = Isothermal titration calorimetry; type: binding, Escherichia coli O55:B5; conditions: Table S12; ITC, 2 mM LPS into 0.2 mM peptide, in H2O, 20 injections
Method: as §2

[4] = tested on: S. aureus USA300; test: UDP-MurNAc-pentapeptide accumulation assay; type: cell-based; conditions: 8 × MIC, 1 hr, LC-MS
Method: To determine the effects of aquicidine L or aquicidine C4 on bacterial cell wall biosynthesis of S. aureus USA300, the accumulation of the precursor UDP‐MurNAc‐pentapeptide was investigated in antibiotic‐treated cell cultures. 50 µL of overnight cultures were transferred to 5 mL of fresh LB broth and cultured to 0.5 of OD600 at 37 °C and 200 rpm. The cultures were treated with 130 µg/mL of chloramphenicol for 15 min at 37 °C and 200 rpm, and 128 µg/mL of aquicidine L or 32 µg/mL aquicidine C4 was added. 8 µg/mL of vancomycin and DMSO were used as positive and negative controls, respectively. After an incubation of 1 hr, the cell pellet from 0.5 mL of the cell cultures was resuspended in 30 µL of ddH2O and then boiled for 15 min. Finally, the supernatant was collected and then detected using an Agilent 1290 Series High‐Performance Liquid Chromatography (HPLC) coupled to a 6546 Series QTOF mass spectrometer equipped with an XBridge C18 column (4.6 × 150 mm, 5 µm). Solvent A = H2O (0.1% v/v formic acid) and solvent B = CH3CN (0.1% v/v formic acid) were used for HPLC analysis with 0.4 mL min^−1 of flow rate at 25 °C. Gradient conditions were as follows: t = 0‐1 min, 3% solvent B; t = 2‐7 min, 3‐95% solvent B; t = 7‐8 min, 95% solvent B; t = 8–9 min, 95‐3% solvent B; t = 9–10 min, 3% solvent B.

[5] = tested on: S. aureus USA300; test: Membrane depolarization assay (DiSC3(5)); type: cell-based; conditions: S. aureus USA300 in PBS, 4 × MIC, n = 2
Method: Bacterial membrane depolarization assay was performed in 384‐well black microtiter plates. Overnight cell cultures of S. aureus USA300 were collected and resuspended in PBS buffer to an OD600 of 0.5. Then, 100 µL of the diluted cell suspension and 50 µL of 20 µM DiSC3(5) dye were added to 300 µL of PBS buffer, which was incubated for 15 min at room temperature in the dark. 50 µL of 2 M KCl was then added and incubated for another 15 min. Fluorescence intensity was determined continually at 2 s intervals (Ex/Em 643/675 nm) using a Tecan spark multimode microplate reader. When the signal stabilized, the appropriate amount of aquicidine L or aquicidine C4 (6.4 mg mL^−1 in DMSO, 4 × MIC) was added. DMSO and daptomycin were used as negative and positive controls, respectively. Data were shown as the relative intensity with respect to the average fluorescence signal prior to the addition of each compound. All assays were performed two independent times (n = 2), and a representative fluorescence recording was presented.

[6] = tested on: S. aureus USA300; test: Membrane lysis assay (SYTOX Green); type: cell-based; conditions: S. aureus USA300 in PBS, 8 × MIC, n = 2
Method: Bacterial membrane lysis assay was performed in 384‐well black microtiter plates. Overnight cultures of S. aureus USA300 were collected and resuspended in PBS buffer to an OD600 of 0.5. 1 µL of 5 mM SYTOX Green dye was added to 2.5 mL of the diluted cell suspension, which was incubated for 10 min at room temperature in the dark. Fluorescence intensity was detected continually at 2 s intervals (Ex/Em 488/523 nm) using a Tecan spark multimode microplate reader. When the fluorescence signal stabilized, the appropriate amount of each compound (6.4 mg mL^−1 in DMSO, 8 × MIC) was added. DMSO and daptomycin (with 15 mM CaCl2) were used as negative and positive controls, respectively. Data were shown as the relative intensity with respect to the average fluorescence signal prior to the addition of each compound. All membrane lysis assays were performed two independent times (n = 2), and a representative fluorescence recording was presented.

[7] = tested on: S. aureus USA300; test: Scanning electron microscopy of treated cultures; type: cell-based; conditions: 4× the MIC, after 180 min of treatment
[8] = Acute toxicity assay; type: in vivo, mouse; conditions: single dose 250 mg kg^−1 intraperitoneal, three mice, five days
Method: For acute toxicity assessment, three mice were given a single dose of aquicidine L or aquicidine C4 at 250 mg kg^−1 via intraperitoneal injection. Mice were observed twice daily for mortality and morbidity as well as for possible signs of acute toxicity. The experiment was totally monitored for five days.

[9] = tested on: Shigella Castellani LXX; test: MIC assay (broth micro-dilution); type: cell-based; conditions: Table S11; LB broth, 37 °C, 16 h, n = 2
Outline: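 Growth inhibition read visually; MIC taken as lowest inhibitory concentration. LB medium; inocula from overnight cultures diluted 5000-fold, S. aureus 10000-fold. Peptide range 64 to 0.125 µg mL^−1 (2-fold, pre-mix), two independent determinations.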

[10] = tested on: K. pneumoniae 15580; test: MIC against colistin-resistant strain; type: cell-based; conditions: Figure S127a
Method: as §1
For most of bacterial strains, overnight cultures were diluted 5000‐fold in LB broth. For E. faecium and S. aureus, overnight cultures were diluted 1000‐ and 10000‐fold in LB broth, respectively. 100 µL of diluted cells was mixed with 100 µL of LB broth containing each peptide ranging from 64 to 0.125 µg mL^−1 at 2‐fold serial dilutions.

| SMILES | MIC Candida albicans ATCC 10231 [1] | Kd ([2]; 2 mM CL into 0.2 mM peptide) | Kd ([2]; 2 mM PE into 0.2 mM peptide) | Kd ([2]; 2 mM PG into 0.2 mM peptide) | Kd [3] | accumulation of UDP-MurNAc-pentapeptide [4] | DiSC3(5) fluorescence (membrane depolarization) [5] | SYTOX fluorescence (cell lysis) [6] | scanning electron microscopy, cell lysis [7] | acute toxicity in mouse [8] | MIC Shigella Castellani LXX [9] | antibacterial activity (MIC) K. pneumoniae 15580 [10] |
| --- | --- | --- | --- | --- | --- | --- | --- | --- | --- | --- | --- | --- |
| CCCCCCCCCCCCCC(=O)N[C@@H](CN)C(=O)N[C@H](C(=O)N[C@@H](CC(C)C)C(=O)N[C@H]1COC(=O)[C@H](Cc2ccccc2)NC(=O)[C@H](CC(N)=O)NC(=O)[C@H](CCCN)NC(=O)[C@H]([C@@H](C)CC)NC(=O)[C@H](Cc2ccccc2)NC(=O)[C@H](CN)NC(=O)[C@H](CCN)NC1=O)[C@@H](C)O [synAQU5-C4] (Myristoyl-[Dap]TLS[Dab][Dap]FI[Orn]NF; ester 4-C) | > 64 µg/mL | 0.06 µM | 49.3 µM | 0.08 µM | 1.84 µM | did not show an obvious accumulation | significant increase | significant increase | lysed the majority of cells | no obvious acute toxicities |  |  |
| CCCCCCCCCCCCCC(=O)N[C@@H](CN)C(=O)N[C@H](C(=O)N[C@@H](CC(C)C)C(=O)N[C@@H](CO)C(=O)N[C@@H](CCN)C(=O)N[C@@H](CN)C(=O)N[C@@H](Cc1ccccc1)C(=O)N[C@H](C(=O)N[C@@H](CCCN)C(=O)N[C@@H](CC(N)=O)C(=O)N[C@@H](Cc1ccccc1)C(=O)O)[C@@H](C)CC)[C@@H](C)O [synAQU5-L] (Myristoyl-[Dap]TLS[Dab][Dap]FI[Orn]NF-OH) | > 64 µg/mL | 0.28 µM | 7.88 µM | 0.32 µM | 0.29 µM | did not show an obvious accumulation | not aquicidine L caused a significant increase | not aquicidine L caused a significant increase |  | no obvious acute toxicities | 8 µg/mL (≈ 5.56 µM) | 8 µg/mL |
